Patent US5827837A, “Polyanion anti-inflammatory agents” (priority 1996, dated 1998)

Experiments:
selectin = experiment: Selectin-sulfatide interactions; format: binding
P-selectin (P-COS) = biological target: T1, P-selectin (P-COS) (Homo sapiens, UniProt P16109); experiment: PMN adhesion to P-selectin transfected COS cells (P-COS); format: cell-based; conditions: for PMN adhesion to P-selectin transfected COS: inositol up to 10 mM, InsP6 0.5 mM
T1 construct: adhesion of human PMN or HL60
T1 sequence (P16109 42-830): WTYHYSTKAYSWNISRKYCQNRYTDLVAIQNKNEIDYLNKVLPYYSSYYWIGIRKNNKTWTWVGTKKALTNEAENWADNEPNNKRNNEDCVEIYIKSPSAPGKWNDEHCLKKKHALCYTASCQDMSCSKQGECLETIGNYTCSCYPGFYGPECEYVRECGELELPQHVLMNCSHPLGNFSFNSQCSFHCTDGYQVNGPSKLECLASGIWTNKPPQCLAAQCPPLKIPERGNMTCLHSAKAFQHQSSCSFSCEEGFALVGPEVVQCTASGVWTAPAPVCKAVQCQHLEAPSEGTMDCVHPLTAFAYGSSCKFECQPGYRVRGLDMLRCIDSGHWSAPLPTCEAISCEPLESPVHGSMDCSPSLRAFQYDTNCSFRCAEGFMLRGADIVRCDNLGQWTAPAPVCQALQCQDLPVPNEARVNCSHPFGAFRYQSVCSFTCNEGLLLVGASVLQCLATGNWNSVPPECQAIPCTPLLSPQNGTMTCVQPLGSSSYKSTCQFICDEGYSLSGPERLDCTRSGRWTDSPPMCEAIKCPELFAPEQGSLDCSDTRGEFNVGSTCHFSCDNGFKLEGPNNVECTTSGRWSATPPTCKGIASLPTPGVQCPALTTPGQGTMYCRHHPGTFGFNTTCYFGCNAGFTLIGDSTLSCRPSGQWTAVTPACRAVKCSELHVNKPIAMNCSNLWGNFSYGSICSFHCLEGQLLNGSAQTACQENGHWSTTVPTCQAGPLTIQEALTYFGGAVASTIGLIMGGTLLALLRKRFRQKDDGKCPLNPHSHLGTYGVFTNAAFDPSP
Procedure: COS-1 cells were transfected as described (Seed, B., et al., Proc. Natl. Acad. Sci., U.S.A., 84:3365, 1987; Aruffo, A., Current Protocols In Molecular Biology, eds. supra, 1992) with pCDM7/pCDM8 expression vectors containing the full-length E-, P- and L-selectin cDNA. Transfected COS-1 cells were seeded on gelatin coated coverslips.

[1] = biological target: T2, P-selectin-lg fusion protein (Homo sapiens, UniProt P16109); experiment: LS 180 colon cancer cell adhesion to immobilized P-selectin-Ig; format: cell-based
T2 construct: Each selectin-lg contains the lectin domain, epidermal growth factor domain, and one (L-selectin-lg), two (P-selectin-lg) or six (E-selectin-lg) complement regulatory repeats; made in house
Procedure: Cell adhesion assays on immobilized selectin-lg were performed essentially as described (Nelson, R. M., et al., J. Clin. Invest., 91:1157, 1993; Nelson, R. M., et al., Symposia on Quant. Biol., 57:271, 1992). Briefly, Nunclon Terasaki Microwell plates were coated overnight with 5 μl/well of a 5 μg/ml solution of protein A (Chemicon, Temecula, Calif.) in 50 mM carbonate buffer, pH 9.5. Protein-A-coated plates were washed with Dulbecco's phosphate buffered saline (PBS), incubated for 1 hour with L-, P-, or E-selectin-lg fusion proteins in PBS (5-20 μg/ml), washed again, and blocked with PBS containing 1% human serum albumin (HSA). To measure inhibition of cell adhesion, 5 μl/well of lnsP6 in PBS was added to the selectin-lg coated plates and incubated for 30 min at […]. LS 180 cells were harvested by brief trypsinization and resuspended at 1.5×10^6 cells/ml in PBS containing 1% HSA; five μl/well of suspension was added, and incubated for 30 min at 4° C. After washing to remove unbound cells, adherent cells were fixed with glutaraldehyde (2.5% in PBS) and counted. Symbols and error bars represent mean number of adherent cells/mm^2 ±s.e.m., counted in quadruplicate wells in a single experiment representative of three. No LS 180 cell adhesion was detected on plates coated with protein A alone, or on plates coated with protein A-captured CD8-lg fusion protein.
LS 180 cells (ATCC, Rockville, Md.) were added to cell culture wells containing protein A-captured selectin-lg fusion proteins and incubated for 30 min at 4° C. to allow adhesion. The plates were washed to remove unbound cells and adherent cells were counted microscopically. To determine adhesion blocking activity, InsP6 at the indicated concentrations was added to selectin-lg-coated wells 30 min prior to addition of LS 180 cells.

T2 sequence (P16109 with tags, fused parts or gaps limits assumed): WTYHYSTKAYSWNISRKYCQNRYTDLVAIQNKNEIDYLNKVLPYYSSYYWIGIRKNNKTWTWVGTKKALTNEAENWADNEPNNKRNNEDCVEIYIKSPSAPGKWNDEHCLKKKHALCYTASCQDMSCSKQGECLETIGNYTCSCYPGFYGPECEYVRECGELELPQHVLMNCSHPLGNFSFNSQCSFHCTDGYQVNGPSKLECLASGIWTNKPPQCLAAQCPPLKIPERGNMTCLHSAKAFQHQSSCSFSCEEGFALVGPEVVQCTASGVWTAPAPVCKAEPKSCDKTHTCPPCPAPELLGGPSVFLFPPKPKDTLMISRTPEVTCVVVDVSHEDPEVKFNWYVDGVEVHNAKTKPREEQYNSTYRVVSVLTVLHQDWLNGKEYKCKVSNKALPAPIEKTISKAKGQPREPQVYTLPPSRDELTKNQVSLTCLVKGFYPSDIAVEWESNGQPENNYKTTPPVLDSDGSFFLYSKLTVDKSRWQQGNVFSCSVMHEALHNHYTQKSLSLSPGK

Row | inhibition at 5000 µM (P-selectin (P-COS); COS, 5 mM, read-out: blocking of PMN adhesion to P-selectin transfected COS) | inhibition at 4000 µM ([1]; LS180, 4 mM, single experiment) | SMILES | blocking of selectin-sulfatide interactions (selectin) | PMN adhesion to P-selectin transfected COS (P-selectin (P-COS)) | LS 180 adhesion to P-selectin-Ig [1]
1 |  |  | O=P(O)(O)O[C@H]1[C@H](OP(=O)(O)O)[C@@H](OP(=O)(O)O)[C@H](OP(=O)(O)O)[C@@H](OP(=O)(O)O)[C@H]1OP(=O)(O)O [InsP6, myo-inositol hexakisphosphate] | blocked selectin-sulfatide interactions at concentrations similar to those that were effective in blocking the binding to BSA-sLe^x | blocked PMN adhesion to P-COS | blocked the adhesion of LS 180 cells
2 | 63% | ~45% | O=S(=O)(O)O[C@H]1[C@H](OS(=O)(=O)O)[C@@H](OS(=O)(=O)O)[C@H](OS(=O)(=O)O)[C@@H](OS(=O)(=O)O)[C@H]1OS(=O)(=O)O [InsS6, myo-inositol hexakissulfate] | blocked selectin-sulfatide interactions at concentrations similar to those that were effective in blocking the binding to BSA-sLe^x |  | 
3 |  |  | O[C@H]1[C@H](O)[C@@H](O)[C@H](O)[C@@H](O)[C@H]1O [myo-inositol, reference compound] | not inositol) blocked selectin-sulfatide interactions | no effect at concentrations up to 10 mM | inactive at concentrations up to 5 mM
